ChEMBL document CHEMBL5614455, “Novel Azepino[4,5-b]indolone as cGAS Inhibitors for Treating Immune-Mediated Diseases” (ACS Med Chem Lett, 2024)
pIC50: −log10 of the molar value.

biological target: Cyclic GMP-AMP synthase (Homo sapiens, UniProt Q8N884); assay: Inhibition of full length his-tagged human recombinant cGAS extracted from Escherichia coli BL21 (DE3) incubated for 3 hrs by rapidfire 365 mass spectrometry analysis
Sequence (Q8N884 whole entry): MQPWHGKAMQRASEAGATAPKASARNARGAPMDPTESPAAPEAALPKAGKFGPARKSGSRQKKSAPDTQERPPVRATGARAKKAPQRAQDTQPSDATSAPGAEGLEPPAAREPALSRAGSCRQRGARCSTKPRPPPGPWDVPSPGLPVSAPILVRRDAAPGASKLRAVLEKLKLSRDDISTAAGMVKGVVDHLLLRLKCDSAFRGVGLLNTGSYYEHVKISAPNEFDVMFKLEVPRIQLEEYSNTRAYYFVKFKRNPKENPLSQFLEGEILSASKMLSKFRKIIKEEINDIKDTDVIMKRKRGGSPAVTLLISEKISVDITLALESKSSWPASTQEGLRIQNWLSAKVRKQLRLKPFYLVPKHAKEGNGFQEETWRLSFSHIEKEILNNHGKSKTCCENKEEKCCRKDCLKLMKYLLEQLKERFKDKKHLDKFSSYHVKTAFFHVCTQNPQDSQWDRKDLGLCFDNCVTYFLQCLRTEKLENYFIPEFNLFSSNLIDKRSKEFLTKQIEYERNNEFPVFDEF

pIC50	SMILES
8.10	CC(F)(F)C[C@@H]1CNC(=O)Cc2c1[nH]c1c(Cl)c(Cl)cc(CC#N)c21
8.30	Cn1ncc(-c2cc(Cl)c(Cl)c3[nH]c4c(c23)CC(=O)NCC4CC(=O)O)n1 (stereo unspecified)

Further lines, the molecule ahead of its results:

SMILES	pIC50
COCC[C@@H]1CNC(=O)[C@@H](C)c2c1[nH]c1c(Cl)c(Cl)cc(NCCO)c21	8.10
C[C@@H]1C(=O)NCCc2[nH]c3c(Cl)c(Cl)cc(OCCCO)c3c21	8.15
COCCCOc1cc(Cl)c(Cl)c2[nH]c3c(c12)[C@H](C)C(=O)NCC3	8.10
C[C@@H]1C(=O)NCCc2[nH]c3c(Cl)c(Cl)cc(OCC#N)c3c21	8.70
